Experimental data from PMC10128460, “Discovery of the first-in-class potent and isoform-selective human carbonic anhydrase III inhibitors” (Journal of Enzyme Inhibition and Medicinal Chemistry, 2023).
“And” between values parts separate entries of the source, which are not always exact repeats. Identical values can stand only once.

How the values were obtained:
[1] = target: T1, hCA I (Homo sapiens, UniProt P00915); experiment: Stopped-Flow CO2 hydrase assay, hCA I; assay type: biochemical; settings: mean from 3 assays, errors ± 5–10%
T1 construct: made in house
Experimental: (§1) An Applied Photophysics stopped-flow instrument has been used for assaying the CA catalysed CO2 hydration activity[47]. […] The CO2 concentrations ranged from 1.7 to 17 mM for the determination of the kinetic parameters and inhibition constants. […] The uncatalysed rates were determined in the same manner and subtracted from the total observed rates. Stock solutions of inhibitor (0.1 mM) were prepared in distilled − deionized water and dilutions up to 0.01 nM were done thereafter with the assay buffer. Inhibitor and enzyme solutions were preincubated together for 15 min at room temperature before assay to allow for the formation of the E − I complex. The inhibition constants were obtained by nonlinear least-squares methods using PRISM 3 and the Cheng − Prusoff equation, as reported earlier[48]^,[49], and represent the mean from at least three different determinations. […] All hCA isoforms were recombinant ones obtained in-house as reported earlier[50].

[2] = target: T2, hCA II (Homo sapiens, UniProt P00918); experiment: Stopped-Flow CO2 hydrase assay, hCA II; assay type: biochemical; settings: mean from 3 assays, errors ± 5–10%
T2 construct: made in house
Experimental: as §1

[3] = target: T3, hCA III (Homo sapiens, UniProt P07451); experiment: Stopped-Flow CO2 hydrase assay, hCA III; assay type: biochemical; settings: for Selectivity Index (SI) hCA I/hCA III: ratio of KI hCA I to KI hCA III; for Selectivity Index (SI) hCA II/hCA III: ratio of KI hCA II to KI hCA III; for Ki: stopped-flow CO2 hydrase, mean from 3 assays, errors ± 5–10%
T3 construct: made in house
Experimental: as §1

[4] = target: T4, hCA IV (Homo sapiens, UniProt P22748); experiment: Stopped-Flow CO2 hydrase assay, hCA IV; assay type: biochemical; settings: mean from 3 assays, errors ± 5–10%
T4 construct: made in house
Experimental: as §1

[5] = target: T5, hCA VA (Homo sapiens, UniProt P35218); experiment: Stopped-Flow CO2 hydrase assay, hCA VA; assay type: biochemical; settings: stopped-flow CO2 hydrase, mean from 3 assays, errors ± 5–10%; read-out: KI hCA VA
T5 construct: made in house
Experimental: as §1

[6] = target: T6, hCA VB (Homo sapiens, UniProt Q9Y2D0); experiment: Stopped-Flow CO2 hydrase assay, hCA VB; assay type: biochemical; settings: mean from 3 assays, errors ± 5–10%
T6 construct: made in house
Experimental: as §1

[7] = target: T7, hCA VII (Homo sapiens, UniProt P43166); experiment: Stopped-Flow CO2 hydrase assay, hCA VII; assay type: biochemical; settings: mean from 3 assays, errors ± 5–10%
T7 construct: made in house
Experimental: as §1

[8] = target: T8, hCA XII (Homo sapiens, UniProt O43570); experiment: Stopped-Flow CO2 hydrase assay, hCA XII; assay type: biochemical; settings: mean from 3 assays, errors ± 5–10%
T8 construct: made in house
T8 sequence (O43570 25-354): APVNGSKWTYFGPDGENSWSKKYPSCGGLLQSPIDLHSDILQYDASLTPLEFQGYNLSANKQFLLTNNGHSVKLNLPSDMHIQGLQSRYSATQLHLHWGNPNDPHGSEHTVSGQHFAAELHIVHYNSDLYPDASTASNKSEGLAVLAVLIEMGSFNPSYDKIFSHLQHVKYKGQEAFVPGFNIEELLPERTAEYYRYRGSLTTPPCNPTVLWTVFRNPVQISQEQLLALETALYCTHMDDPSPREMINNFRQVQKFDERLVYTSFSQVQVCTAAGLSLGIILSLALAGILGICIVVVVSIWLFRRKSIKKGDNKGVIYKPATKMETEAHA
Experimental: as §1

T4 sequence (P22748 19-312): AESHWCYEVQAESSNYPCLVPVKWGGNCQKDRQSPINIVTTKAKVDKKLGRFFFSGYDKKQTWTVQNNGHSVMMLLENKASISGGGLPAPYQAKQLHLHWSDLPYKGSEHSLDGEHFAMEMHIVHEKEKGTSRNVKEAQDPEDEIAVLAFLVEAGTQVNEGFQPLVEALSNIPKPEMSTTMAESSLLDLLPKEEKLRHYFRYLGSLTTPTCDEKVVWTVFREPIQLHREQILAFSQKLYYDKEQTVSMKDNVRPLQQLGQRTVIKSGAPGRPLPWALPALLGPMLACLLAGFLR
T7 sequence (P43166 whole entry): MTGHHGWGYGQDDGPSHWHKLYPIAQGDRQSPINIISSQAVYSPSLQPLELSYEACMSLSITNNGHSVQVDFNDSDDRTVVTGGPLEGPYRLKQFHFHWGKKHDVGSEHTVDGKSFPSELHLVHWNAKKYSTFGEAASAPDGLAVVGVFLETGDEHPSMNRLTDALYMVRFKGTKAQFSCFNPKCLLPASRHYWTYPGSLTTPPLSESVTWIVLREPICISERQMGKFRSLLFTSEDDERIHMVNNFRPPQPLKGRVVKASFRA
T1 sequence (P00915 whole entry): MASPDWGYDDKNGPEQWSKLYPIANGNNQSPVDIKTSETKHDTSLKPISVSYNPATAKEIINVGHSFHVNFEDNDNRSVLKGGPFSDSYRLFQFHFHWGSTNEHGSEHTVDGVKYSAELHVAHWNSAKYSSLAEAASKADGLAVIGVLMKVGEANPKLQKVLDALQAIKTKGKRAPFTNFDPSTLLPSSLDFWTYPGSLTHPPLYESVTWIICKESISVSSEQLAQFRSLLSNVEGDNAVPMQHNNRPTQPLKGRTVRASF
T6 sequence (Q9Y2D0 34-317): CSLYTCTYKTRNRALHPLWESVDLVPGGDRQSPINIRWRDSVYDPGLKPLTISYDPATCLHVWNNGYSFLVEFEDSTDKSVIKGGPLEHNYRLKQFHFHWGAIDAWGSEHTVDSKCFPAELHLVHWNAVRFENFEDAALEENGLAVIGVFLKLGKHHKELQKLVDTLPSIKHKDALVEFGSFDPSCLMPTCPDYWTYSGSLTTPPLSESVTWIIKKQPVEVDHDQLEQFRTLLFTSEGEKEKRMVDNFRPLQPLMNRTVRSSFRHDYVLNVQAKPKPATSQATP
T3 sequence (P07451 whole entry): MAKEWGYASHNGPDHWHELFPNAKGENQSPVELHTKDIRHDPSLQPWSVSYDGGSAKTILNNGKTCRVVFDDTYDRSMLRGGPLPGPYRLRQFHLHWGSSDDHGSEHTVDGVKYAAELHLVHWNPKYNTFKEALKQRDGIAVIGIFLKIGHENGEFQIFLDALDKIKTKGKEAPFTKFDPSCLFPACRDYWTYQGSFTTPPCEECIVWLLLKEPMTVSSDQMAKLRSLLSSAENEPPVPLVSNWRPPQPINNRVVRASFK
T5 sequence (P35218 39-305): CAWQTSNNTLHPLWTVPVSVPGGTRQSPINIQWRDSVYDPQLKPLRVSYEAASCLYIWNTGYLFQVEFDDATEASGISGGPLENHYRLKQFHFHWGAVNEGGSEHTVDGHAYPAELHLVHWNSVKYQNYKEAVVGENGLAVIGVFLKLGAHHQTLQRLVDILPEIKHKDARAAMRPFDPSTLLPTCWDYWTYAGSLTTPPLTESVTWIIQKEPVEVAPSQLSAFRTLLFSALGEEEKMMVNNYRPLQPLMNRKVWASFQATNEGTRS

Molecule | Ki [1] [µM] | Ki [2] [µM] | Selectivity Index (SI) hCA I/hCA III [3] | Selectivity Index (SI) hCA II/hCA III [3] | Ki [3] [µM] | Ki [4] | Ki [5] [µM] | Ki [6] [µM] | Ki [7] [µM] | Ki [8] [µM] | melting point [°C]
3–(4-(3-Fluorophenyl)-1H-1,2,3-triazol-1-yl)propane-1-sulfonamide [Compound 39] | 0.862 | 3.15 | 5.3 | 19.34 and 19.3 | 0.163 | 2.61 µM | 1.57 | 1.31 | 6.5 | 1.24 | –
3–(4-Phenyl-1H-1,2,3-triazol-1-yl)propane-1-sulfonamide [Compound 38] | 0.607 | 0.713 | 1.21 and 1.2 | 1.4 | 0.502 | 0.959 µM | 1.65 | 1.04 | 0.86 | 1.06 | –
4–(4-(3-Fluorophenyl)-1H-1,2,3-triazol-1-yl)butane-1-sulfonamide [Compound 52] | 0.778 | 8.13 | 2.5 | 26.2 | 0.31 | > 10 µM | 1.27 | 2.99 | 3.23 | 7.81 | –
NS(=O)(=O)CCCn1cc(COc2ccccc2)nn1 [Compound 27, 3–(4-(Phenoxymethyl)-1H-1,2,3-triazol-1-yl)propane-1-sulfonamide] | 0.76 | 2.72 | 1.16 and 1.2 | 4.2 | 0.654 | 4.72 µM | 3.87 | 2.89 | 2.7 | 2.69 | 254 to 255
NS(=O)(=O)CCCn1cc(COc2ccc(F)cc2)nn1 [Compound 28, 3–(4-((4-Fluorophenoxy)methyl)-1H-1,2,3-triazol-1-yl)propane-1-sulfonamide] | 4.89 | 2.03 | 6.7 | 2.8 | 0.728 | > 10 µM | 1.03 | 2.47 | 4.37 | 2.48 | 261 to 263
COc1ccc(OCc2cn(CCCS(N)(=O)=O)nn2)cc1 [Compound 29, 3–(4-((4-Methoxyphenoxy)methyl)-1H-1,2,3-triazol-1-yl)propane-1-sulfonamide] | 1.16 | 2.45 | 2.1 | 4.4 | 0.554 | 5.44 µM | 4.81 | 3.03 | 2.71 | 1.95 | 273 to 274
COc1cccc(OCc2cn(CCCS(N)(=O)=O)nn2)c1 [Compound 30, 3–(4-((3-Methoxyphenoxy)methyl)-1H-1,2,3-triazol-1-yl)propane-1-sulfonamide] | 1.91 | 4.1 | 5.5 | 11.89 and 11.9 | 0.345 | > 10 µM | 2.88 | 1.44 | 4.68 | 1.1 | 270 to 272
NS(=O)(=O)CCCn1cc(CNC(=O)Nc2ccc(F)cc2)nn1 [Compound 31, 3–(4-((3–(4-Fluorophenyl)ureido)methyl)-1H-1,2,3-triazol-1-yl)propane-1-sulfonamide] | > 10 | 2.9 | – | 3.5 | 0.826 | 5.94 µM and 5.93 µM | 5.7 | 5.87 | 4.57 | 1.5 | 249 to 252
Cc1ccc(NC(=O)NCc2cn(CCCS(N)(=O)=O)nn2)cc1 [Compound 32, 3–(4-((3-(p-Tolyl)ureido)methyl)-1H-1,2,3-triazol-1-yl)propane-1-sulfonamide] | > 10 | 2.97 | – | 3.8 | 0.772 | 6.16 µM | 8.7 | 1.61 | 4.4 | 5.03 | 217 to 218
NS(=O)(=O)CCCn1cc(CNC(=O)Nc2ccc(C(F)(F)F)cc2)nn1 [Compound 33, 3–(4-((3–(4-(Trifluoromethyl)phenyl)ureido)methyl)-1H-1,2,3-triazol-1-yl)propane-1-sulfonamide] | > 10 | 4.16 | – | 4.2 | 0.989 | 0.875 µM | 7.04 | 2.09 | 5.41 | 2.63 | > 300
CCOC(=O)c1ccc(NC(=O)NCc2cn(CCCS(N)(=O)=O)nn2)cc1 [Compound 34, Ethyl 4–(3-((1–(3-sulfamoylpropyl)-1H-1,2,3-triazol-4-yl)methyl)ureido)benzoate] | > 10 | 2.5 | > 18.29 | 4.6 | 0.547 | 4.46 µM | 2.65 | 3.74 | 2.31 | 4.9 | 239 to 241
COc1cccc(NC(=O)NCc2cn(CCCS(N)(=O)=O)nn2)c1 [Compound 35, 3–(4-((3–(3-Methoxyphenyl)ureido)methyl)-1H-1,2,3-triazol-1-yl)propane-1-sulfonamide] | > 10 | 0.937 | – | 1.19 and 1.2 | 0.786 | > 10 µM | 2.04 | 4 | 4.48 | 1.98 | 214 to 215
NS(=O)(=O)CCCCn1cc(COc2ccccc2)nn1 [Compound 40, 4–(4-(Phenoxymethyl)-1H-1,2,3-triazol-1-yl)butane-1-sulfonamide] | 6.54 | 7.77 | 8.0 | 9.5 | 0.818 | 3.61 µM | 7.78 | 1.53 | 7.61 | 5.18 | 221 to 223
COc1ccc(NC(=O)NCc2cn(CCCCS(N)(=O)=O)nn2)c(C)c1 [Compound 49, 4–(4-((3–(4-Methoxy-2-methylphenyl)ureido)methyl)-1H-1,2,3-triazol-1-yl)butane-1-sulfonamide] | > 10 | – | – | – | – | – | 8.77 | – | 5.15 | 5.82 | 282 to 285
Ethyl 1–(4-sulfamoylbutyl)-1H-1,2,3-triazole-4-carboxylate [Compound 50] | 0.916 | 0.772 | 1.18 and 1.2 | 1.0 | 0.775 | 3.98 µM | 0.911 | 0.814 | 0.809 | 1.02 | –
